What was measured:
Type in all cases: cell-based
[1] = tested on: Eucalyptus nodal sections; assay: Acetosyringone in the co-cultivation medium, GUS staining of explants (Example 8)
Protocol: The inclusion of a phenolic compound, acetosyringone, in the co-cultivation medium was tested. Eucalyptus nodal sections were infected with Agrobacterium containing the double 35S-GUS construct, as described in Example 5, and then allowed to co-cultivate on MS+0.4% glucose medium containing acetosyringone, as described in Example 5. Following co-cultivation, explants were placed onto bud induction/selection medium for subsequent growth. Explants were stained for GUS activity as in Example 5 at 4-5 weeks post-infection.

[2] = tested on: stem segments from in vitro micropropagated shoot cultures of E. grandis x nitens clone 910.59; assay: Adventitious bud induction from stem segments of different age at different BA concentrations (Example 1); details: NAA 0.01 mg/l, after 5 weeks in culture
Excerpt: (§1) The following examples are offered by way of illustration and not by way of limitation. Examples 1 to 3 describe experiments involving optimization of the regeneration and transformation protocols for Eucalyptus transformation. All refer to adventitious bud induction from stem segments obtained from in vitro micropropagated shoot cultures of E. grandis x nitens clone 910.59 (Fletcher Challenge Forests, Ltd., New Zealand). The tissue culture conditions in all examples, unless otherwise noted, were: temperature 20° C., 16 hour photoperiod, and cool white fluorescent lighting. These tissue culture conditions are generally preferred. All cultures were placed in 20×100 mm Petri dishes, 10 stem segments per dish.
This experiment was designed to determine the best age of stem segments for adventitious bud induction. The basal medium used was full-strength Murashige and Skoog (MS) medium (Sigma M5519) and sucrose 30 g/l. The age of stem segments (apical, 1st, 2nd, 3rd and 4th nodes) were tested in combination with the concentrations of Benzylaminopurine (BA-1, 2 and 3 mg/l). All media contained Naphthalene acetic acid (NAA) at 0.01 mg/l.
In vitro shoots of 3-4 cm were cut into single node segments. The leaves were removed prior to culture. Approximately twenty explants were cultured for each treatment. Cultures were transferred to fresh media every 3 weeks. Adventitious bud development assessments were done after 5 weeks in culture. The percentages of explants forming adventitious shoots for each treatment are listed below.

[3] = tested on: stem segments from in vitro micropropagated shoot cultures of E. grandis x nitens clone 910.59; assay: Kanamycin inhibition of adventitious bud formation on stem segments (Example 2); details: after 5 weeks in culture
Excerpt: as §1
This experiment was designed to determine the optimal concentration of kanamycin to be used for selection of transformed bud tissues. Explants were cultured as described at the end of Example 1, in combination with kanamycin levels of 0, 5, 10, 25, 50 or 100 mg/l. In vitro shoots of 3-4 cm in size were cut into single node segments, and the appropriate segments used. All leaves were removed prior to culture. Approximately thirty explants were used for each treatment. Cultures were transferred to fresh medium after 3 weeks in culture, and the percentage of bud inhibition determined after 5 weeks in culture.

COc1cc(C(C)=O)cc(OC)c1O [Acetosyringone, acetosyringone]
% of Total GUS-Positive Explants in Buds ([1]; 5 μM acetosyringone in MS+0.4% glucose co-cultivation medium, GUS staining 4-5 weeks post-infection): 8% | effect on transformation efficiency ([1]; 5 μM acetosyringone in the co-cultivation medium): enhances transformation efficiency

c1ccc(CNc2ncnc3[nH]cnc23)cc1 [BA, Benzylaminopurine]
percentages of explants forming adventitious shoots ([2]; Apical Shoot Tips, BA 1 mg/l): 25% (5/20) | percentages of explants forming adventitious shoots ([2]; Apical Shoot Tips, BA 2 mg/l): 5% (1/20) | percentages of explants forming adventitious shoots ([2]; Apical Shoot Tips, BA 3 mg/l): 33% (7/20) | percentages of explants forming adventitious shoots ([2]; First Node, BA 1 mg/l): 57% (12/21) | percentages of explants forming adventitious shoots ([2]; First Node, BA 2 mg/l): 35% (7/20) | percentages of explants forming adventitious shoots ([2]; First Node, BA 3 mg/l): 20% (4/20) | percentages of explants forming adventitious shoots ([2]; Fourth Node, BA 1 mg/l): 45% (9/20) | percentages of explants forming adventitious shoots ([2]; Fourth Node, BA 2 mg/l): 38% (8/21) | percentages of explants forming adventitious shoots ([2]; Fourth Node, BA 3 mg/l): 10% (2/20) | percentages of explants forming adventitious shoots ([2]; Second Node, BA 1 mg/l): 76% (16/21) | percentages of explants forming adventitious shoots ([2]; Second Node, BA 2 mg/l): 12% (6/20) | percentages of explants forming adventitious shoots ([2]; Second Node, BA 3 mg/l): 20% (4/20) | percentages of explants forming adventitious shoots ([2]; Third Node, BA 1 mg/l): 75% (15/20) | percentages of explants forming adventitious shoots ([2]; Third Node, BA 2 mg/l): 15% (3/20) | percentages of explants forming adventitious shoots ([2]; Third Node, BA 3 mg/l): 15% (3/20)

NC[C@H]1O[C@H](O[C@H]2[C@H](O)[C@@H](O[C@H]3O[C@H](CO)[C@@H](O)[C@H](N)[C@H]3O)[C@H](N)C[C@@H]2N)[C@H](O)[C@@H](O)[C@@H]1O [Kanamycin, kanamycin]
inhibition at 5 µg/mL ([3]; 840 h, kanamycin 5 mg/l, read-out: % Bud Inhibition Relative To Control): 20% | inhibition at 10 µg/mL ([3]; 840 h, kanamycin 10 mg/l, read-out: % Bud Inhibition Relative To Control): 41% | inhibition at 25 µg/mL ([3]; 840 h, kanamycin 25 mg/l, read-out: % Bud Inhibition Relative To Control): 59% | inhibition at 50 µg/mL ([3]; 840 h, kanamycin 50 mg/l, read-out: % Bud Inhibition Relative To Control): 81% | inhibition at 100 µg/mL ([3]; 840 h, kanamycin 100 mg/l, read-out: % Bud Inhibition Relative To Control): 96% | % of Stem Segments Forming Adventitious Buds ([3]; kanamycin 5 mg/l): 64% (18/28) | % of Stem Segments Forming Adventitious Buds ([3]; kanamycin 10 mg/l): 47% (14/30) | % of Stem Segments Forming Adventitious Buds ([3]; kanamycin 25 mg/l): 33% (10/30) | % of Stem Segments Forming Adventitious Buds ([3]; kanamycin 50 mg/l): 15% (14/31) | % of Stem Segments Forming Adventitious Buds ([3]; kanamycin 100 mg/l): 3% (1/30)
